Where two headings read alike, the source gives them in different places.
Assays:
[1] = Fluorescence titration of sensor compounds with glucose; type: binding
Protocol: (§1) The affinity and selectivity of the fluorescent sensor compounds (7) for glucose were evaluated. Specifically, 2 mL of a solution of each sensor compound (7) in methanol (2×10^−6 M) was mixed with 2 mL of aqueous saccharide phosphate buffer solution (pH 7.4) at various concentrations, and the fluorescence intensity recorded. […] This represents a 43- and 49-fold selectivity over fructose and galactose, respectively. In addition, fluorescence enhancement was very large (about 7-fold).

[2] = system: HEP3B cells; test: Fluorescent labeling of fixed HEP3B cells expressing Lewis Y (microscopy, densitometry); type: cell-based; details: 1 μM compound
Protocol: (§2) Cell culture. HEPG2 and COS7 cells were maintained in RPMI media (G. E. Moore et al. (1967) J. Am. Med. Assoc. 199, 519-524) with 10% FBS (GIBCO). HEP3B cells were maintained in RPMI with 10% FBS and 1× sodium pyruvate and 1× non-essential amino acids (GIBCO).
(§3) Fluorescent labeling studies. 6-well plates were seeded with 1×10^6 cells per well and incubated at 37° C. and 5% CO2 for 48 h. The media was removed and cells were washed twice with 1×PBS. The cells were fixed with 1.5 mL of 1:1 methanol/PBS and incubated 20 minutes at 4° C. After incubation, the methanol/PBS solution was removed and cells were washed twice with PBS.
(§4) Diboronic acid compounds 7 were resuspended in 1:1 methanol/PBS and added to wells at 0.5 to 10 μM concentrations. One well was incubated only in methanol/PBS without compound as a negative control. The plates were then incubated in darkness at 4° C. for 45 min. Plates were examined with phase contrast microscopy followed by fluorescent microscopy (blue cube wavelengths 370 nm excitation, 426 nm emission; 20× lens). Plates were photographed using a Nikon DXM1200 digital camera and images captured with the Nikon ACT-1 program (v 2.10). The phase contrast and fluorescent images were then overlaid, organized and labeled using Adobe Photoshop 6.0. The images were quantified with NIH ImageJ 1.28. The units (mean gray value) were subtracted from background, where there are no cells. The fluorescent signal was stable for at least 96 h when cells were maintained in darkness.
(§5) HEPG2, a cell line that selectively expresses sLex on the surface, was selected for examination. To examine the selectivity of the sensor for cell surface sLex, HEP3B and COS7 cells were labeled in parallel. COS7 expresses none of the fucosylated antigens associated with carcinoma progression and HEP3B expresses only the Lewis Y antigen. See B. W. Weston et al. (1992) J. Biol. Chem. 267, 4152-4160; B. W. Weston et al. (1992) J. Biol. Chem. 267, 24575-24584.
(§6) HEPG2 and control cell lines were incubated with compound 7q, while three other diboronic acids (7b, 7d, 7y) were used as controls. […]

[3] = Fluorescence titration of sensor compounds with fructose; type: binding; details: 50% MeOH/0.1 M phosphate buffer pH 7.4, sensor 1×10^−6 M, 25° C.
Protocol: as §1

[4] = system: HEPG2 cells; test: Fluorescent labeling of fixed HEPG2 cells expressing sLex (microscopy, densitometry); type: cell-based; details: 1 μM compound
Protocol: as §2, §3, §4, §5, §6

[5] = Fluorescence titration of sensor compounds with galactose; type: binding; details: 50% MeOH/0.1 M phosphate buffer pH 7.4, sensor 1×10^−6 M, 25° C.
Protocol: as §1

[6] = Solution binding studies with Lewis Y (data not shown)
[7] = Binding of fluorescent compounds 7 to sLex in solution (fluorescence intensity change); details: solution binding studies
Protocol: Diboronic acid compounds 7 were designed to show significant fluorescence intensity changes upon binding with a complementary carbohydrate. In screening for their binding with the target carbohydrate, sLex, the fluorescence intensity changes of solutions of the compounds upon addition of the carbohydrate were determined. These experiments were conducted in a mixture of methanol and 0.1 M phosphate buffer (pH 7.4) (1:1, v/v). Methanol was used to improve the solubility of the sensor compounds. The concentration of fluorescent sensor compound (7) (specific structures provided in FIG. 1, above) was fixed at 1×10^−5 or 1×10^−6 M, and the concentration of sLex was set at 60 μM.

[8] = Springsteen et al.; cited from earlier work
[9] = Springsteen et al.; cited from earlier work; remark: listed apart in the source

## CN(Cc1ccccc1B(O)O)Cc1c2ccccc2c(CN(C)C(=O)Cc2ccccc2CC(=O)N(C)Cc2c3ccccc3c(CN(C)Cc3ccccc3B(O)O)c3ccccc23)c2ccccc12 [Compound 7b]
[1]; 50% MeOH/0.1 M phosphate buffer pH 7.4, sensor 1×10^−6 M, 25° C.
  Ka for glucose: 1472 M⁻¹
[1]; FIG. 8
  glucose concentration region of most sensitive fluorescence intensity changes: mM region
[1]; ratio of Ka
  selectivity for glucose over fructose: 43 fold
  selectivity for glucose over galactose: 49 fold
[1]; versus phenylboronic acid
  improvement in affinity for glucose compared with PBA: about 300 fold
  improvement in selectivity for glucose over fructose compared with PBA: about 1400 fold
[2]
  labeling of HEP3B cells (mean gray value): avidly bound Lewis Y-expressing HEP3B cells
[3]
  Ka for fructose: 34 M⁻¹
[4]
  labeling of HEPG2 cells (mean gray value): did not recognize sLex on HEPG2 cells
[5]
  Ka for galactose: 30 M⁻¹

## CN(Cc1ccccc1B(O)O)Cc1c2ccccc2c(CN(C)C(=O)CCc2ccc(CCC(=O)N(C)Cc3c4ccccc4c(CN(C)Cc4ccccc4B(O)O)c4ccccc34)cc2)c2ccccc12 [Compound 7d]
[2]
  labeling of HEP3B cells (mean gray value): did not label HEPG2 or HEP3B
[4]
  labeling of HEPG2 cells (mean gray value): did not label HEPG2 or HEP3B
[6]
  affinity for Lewis Y in solution: low affinity
[7]
  affinity for sLex in solution: low affinity

## CN(Cc1ccccc1B(O)O)Cc1c2ccccc2c(CN(C)C(=O)CCCCC(=O)N(C)Cc2c3ccccc3c(CN(C)Cc3ccccc3B(O)O)c3ccccc23)c2ccccc12 [Compound 7y]
[2]
  labeling of HEP3B cells (mean gray value): recognized surface sLex and Lewis Y with equal avidity
[4]
  labeling of HEPG2 cells (mean gray value): recognized surface sLex and Lewis Y with equal avidity

## OB(O)c1ccccc1 [PBA, phenylboronic acid]
[8]
  Ka for fructose: 162 M⁻¹
[9]
  Ka for glucose: 5 M⁻¹

Source: patent US6916660B2, “Fluorescent sensor compounds for detecting saccharides” (North Carolina State University, priority 2002, dated 2005)
